Values quoted from earlier work as cited in US6699701B1, “Method and device for sanitation using bacteriophages” (priority 2000, dated 2004).

System: bacterial counts
Settings: fresh-cut fruits, most effective chemical sanitizer

OO [hydrogen peroxide]
maximum reduction rate in bacterial counts: ≤ 1.3 logs
